{"source": "patent US12358892B2", "about": "“Metalloenzyme inhibitors for treating cancers, Alzheimer's disease, hemochromatosis, and other disorders” (Miralogx LLC, priority 2020, dated 2025)", "test_system": "HT-29 colorectal adenocarcinoma cell line", "assay": "BioMAP Oncology CRC panel (StroHT29 and VascHT29 systems)", "type": "cell-based, human", "text": "The BioMAP® oncology system used in this Example is a coculture of primary human immune cells with primary tissue cells in the presence of the Colorectal Cancer (CRC) cells. In particular, The BioMAP® Oncology CRC panel models the interactions between the immune-stromal (fibroblasts) and immune-vascular (endothelial cells) environments in the context of colorectal cancer (HT-29 colorectal adenocarcinoma cell line). The interactions between tumor cells, stimulated immune cells (peripheral blood mononuclear cells [PBMC]), and the host stromal network (human neonatal dermal fibroblasts [HDFn]) are captured in the StroHT29 system. In parallel, the VascHT29 system captures the interactions between tumor cells, activated immune cells and the vascular tissue (human umbilical vein endothelial cells [HUVEC]). The biomarkers selected for the BioMAP® Colorectal Cancer (CRC) panel inform on activities related to inflammation, immune-function, tissue remodeling and metastasis in the context of a host tumor-microenvironment.\nA signature BioMAP® profile that is reflective of the changes in protein biomarker readouts within an individual system is generated for each test agent. Biomarker readouts selected for therapeutic and biological relevance are predictive for disease outcomes or specific drug effects, and have been validated using agents with known clinical efficacy. Each readout is measured quantitatively by immune-based receptors, cytokines, chemokines, matrix molecules and enzymes. In total, the 41 biomarker readouts in the CRC panel capture the biological changes that occur within the physiological context of each particular BioMAP® system.\nThe BioMAP® CRC panel allows a focused in vitro evaluation of the impact of an agent in a model system that includes the hierarchical signaling networks that exist between interacting pathways and cells in a disease relevant setting. To represent the changes that are occurring in these complex systems, biomarker readouts with the ability to integrate and distinguish changes in different regulatory networks have been selected.\nData analysis of the results was performed as described in detail above in Example 3.1. Briefly, biomarker activities are annotated when at least one concentration of the test agent is outside of the significance envelope with an effect size >20% compared to the vehicle control (|log 10 ratio|>0.1) and a p-value <0.01. Cytotoxic conditions are noted when total protein levels decrease by more than 50% (log 10 ratio of SRB <−0.3). Biomarker key activities are described as modulated if these activities increase in some systems, but decrease in others.", "key": {"[1]": {"settings": "7.4 μM, 22 μM, 67 μM, Angiogenesis related activities"}, "[2]": {"settings": "7.4 μM, 22 μM, 67 μM, Immune-related activities"}, "[3]": {"settings": "7.4 μM, 22 μM, 67 μM, Inflammation related activities"}, "[4]": {"settings": "7.4 μM, 22 μM, 67 μM, Matrix remodeling activities"}, "[5]": {"settings": "7.4 μM, 22 μM, 67 μM, Tumor-related activities"}}, "note": "Entries after “also recorded” stand apart in the source; their conditions may differ.", "data": [{"compound": "C1=NC(c2cncc(C3CCC=N3)c2)CC1", "note": "(stereo not drawn) [3,5-bis(3,4-dihydro-2H-pyrrol-2-yl)pyridine]", "values": [{"measurement": "Decreased activity: PAI-I", "setting": "[1]", "result": "decreased; also recorded: PAI-I"}, {"measurement": "Decreased activity: tPA", "setting": "[1]", "result": "decreased and tPA"}, {"measurement": "Decreased activity: uPA", "setting": "[1]", "result": "decreased and uPA"}, {"measurement": "Increased activity: sVEGF", "setting": "[1]", "result": "increased; also recorded: SVEGF"}, {"measurement": "Decreased Activity: sIL-6", "setting": "[2]", "result": "decreased"}, {"measurement": "Decreased activity: CD40", "setting": "[2]", "result": "decreased and CD40"}, {"measurement": "Decreased activity: CD69", "setting": "[2]", "result": "decreased and CD69"}, {"measurement": "Decreased activity: sGranB", "setting": "[2]", "result": "decreased; also recorded: sGranB"}, {"measurement": "Decreased activity: sIFNγ", "setting": "[2]", "result": "decreased; also recorded: SIFNG"}, {"measurement": "Decreased activity: sIL-2", "setting": "[2]", "result": "decreased; also recorded: sIL-2"}, {"measurement": "Decreased activity: sIL-10 (Table 8) / sIL-1β", "setting": "[2]", "result": "decreased"}, {"measurement": "Decreased activity: sIL-17A", "setting": "[2]", "result": "decreased"}, {"measurement": "Decreased activity: IP-10", "setting": "[3]", "result": "decreased; also recorded: IP-10"}, {"measurement": "Decreased activity: MCP-1", "setting": "[3]", "result": "decreased; also recorded: MCP-1"}, {"measurement": "Decreased activity: MIG", "setting": "[3]", "result": "decreased and MIG"}, {"measurement": "Decreased activity: VCAM-1", "setting": "[3]", "result": "decreased; also recorded: VCAM-1"}, {"measurement": "Decreased activity: Collagen I", "setting": "[4]", "result": "decreased; also recorded: Col-I"}, {"measurement": "Decreased activity: Collagen III", "setting": "[4]", "result": "decreased and Col-"}, {"measurement": "Decreased activity: Collagen IV", "setting": "[4]", "result": "decreased; also recorded: Col-IV"}, {"measurement": "Decreased activity: MMP9", "setting": "[4]", "result": "decreased and MMP9"}, {"measurement": "Decreased activity: TIMP2", "setting": "[4]", "result": "decreased; also recorded: TIMP2"}, {"measurement": "Decreased activity: CEACAM5", "setting": "[5]", "result": "decreased; also recorded: CEACAM5"}, {"measurement": "Decreased activity: Keratin 20", "setting": "[5]", "result": "decreased"}, {"measurement": "cytotoxicity", "setting": "at 200 μM", "result": "cytotoxic"}]}]}
